Data taken from patent US4892947A, “3(2H)Pyridazinone, process for its preparation and anti-allergic agent containing it” (Nissan Chemical Industries Ltd., priority 1985, dated 1990).

Columns and labels:
[1] = tested on: antigen-induced anaphylactic bronchoconstriction in passively sensitized guinea-pig; assay: Anaphylactic bronchoconstriction in passively sensitized guinea-pig, i.v. test; type: in vivo; settings: i.v. 2 mg/kg, 1 min prior to EA challenge (10 mg/kg)
Protocol: (§1) (iii) Effect on anaphylactic bronchoconstriction in passively sensitized guinea-pig
Male guinea-pigs (350-450 g) were passively sensitized with intravenous (i.v.) injection of 0.125 ml rabbit anti-EA (egg albumin) serum (Cappel Laboratories) 1 to 2 days preceding the experiment. […] Sensitized guinea-pigs were anaesthetized with intraperitoneal injection of urethane (1.5 g/kg). The right jugular vein was cannulated for the administration of the all agents and trachea was cannulated to record total pulmonary resistance. Guinea-pigs were artificially ventilated by a small animal respirator (Shinano, Model SN-480-7) set at a stroke volume of 4.5 ml and a rate of 50 breaths per min. […] The increase in air overflow volume was expresssed as a percentage of the maximum bronchoconstriction obtained by clamping off the trachea. Following surgical preparation, the animals were pretreated with indomethacin (0.2 mg/kg, 10 min), pyrilamine (2 mg/kg, 6 min) and propanolol (0.1 mg/kg, 5 min) prior to the EA challenge (0.1 or 10 mg/kg). All test compounds were administered intraveneously or orally before the EA challenge. Inhibition (%) of bronchoconstriction was determined as follows: Inhibition (%)=(1.0%-maximum bronchoconstriction in test/% maximum bronchoconstriction in control)×100. […] The number of test animals was 4 in the i.v. test and 6 in the p.o. test.
(a) The i.v. test: A test compound (2 mg/kg) was suspended or dissolved in 3% Tween 80 and intraveneously administered 1 min prior to the EA challlenge (10 mg/kg).

ddY strain male mice [2] = assay: Acute toxicity test, intraperitoneal (Test method-(1)); type: in vivo; settings: 7 days
Protocol: The lethal ratio was determined in ddY strain male mice (4 weeks old) at 7 days after the intraperitoneal injection of test compounds.

LTC4 = LTC4 antagonism in isolated guinea-pig trachea (method (i)); type: cell-based; settings: Cavia porcellus, 5 min; 10^-5 g/ml test compound, 5 min prior to LTC4 (2×10^-8 g/ml)
Protocol: (§2) (i) LTC4 and LTD4 antagonisms in guinea-pig trachea
(§3) Antagonisms for LTC4 and LTD4 were determined in isolated guinea-pig trachea prepared as spiral strip. Tracheal preparations were suspended under 1 g tension in 10 ml organ baths and they were incubated for 1 hr prior to use. Contractile responses to LTC4 (2×10^-8 g/ml) and LTD4 (2×10^-8 g/ml) were obtained after the maximal response to histamine (10^-4 M). Test compounds dissolved in 100% dimethyl sulfoxide were added to the organ baths (final concentration of 10^-5 g/ml or 10^-6 g/ml) 5 min prior to LTC4 and LTD4 addition, and then contractile responses to LTC4 and LTD4 were compared with those of control which was obtained from a paired trachea in the absence of test compounds. LTC4 - and LTD4 -induced contractions were expressed as a percentage of the maximal response to histamine. The antagonism was determined as follows:
(§4) Antagonism (%)=(1.0-% contraction in test/% contraction in control)×100

LTD4 [3] = assay: LTD4 antagonism in isolated guinea-pig trachea (method (i)); type: cell-based; settings: Cavia porcellus, 5 min; for inhibition at 10 µg/mL: 10^-5 g/ml test compound, 5 min prior to LTD4 (2×10^-8 g/ml); for inhibition at 1 µg/mL: 10^-6 g/ml test compound, Test method (i) (asterisk in Table 4), 5 min prior to LTD4
Protocol: as §2, §3, §4

[4] = tested on: antigen-induced anaphylactic bronchoconstriction in passively sensitized guinea-pig; assay: Anaphylactic bronchoconstriction in passively sensitized guinea-pig, p.o. test; type: in vivo; settings: for Inhibition (%) of bronchoconstriction: 2 hours prior to EA challenge (0.2 mg/kg)
Protocol: as §1
Male guinea-pigs (350-450 g) were passively sensitized with intravenous (i.v.) injection of 0.125 ml rabbit anti-EA (egg albumin) serum (Cappel Laboratories) 1 to 2 days preceding the experiment. Antigen-induced anaphylactic bronchoconstrictions were measured by modified method of Konzett and Rossler (Arch. Exp. Path. Pharmak., 195, 71, 1940). Sensitized guinea-pigs were anaesthetized with intraperitoneal injection of urethane (1.5 g/kg). The right jugular vein was cannulated for the administration of the all agents and trachea was cannulated to record total pulmonary resistance. Guinea-pigs were artificially ventilated by a small animal respirator (Shinano, Model SN-480-7) set at a stroke volume of 4.5 ml and a rate of 50 breaths per min. The change in pulmonary resistance was measured with a pressure transducer (Nihon Kohden, Model TP-602T) connected to a T-tube on the tracheal cannula. The increase in air overflow volume was expresssed as a percentage of the maximum bronchoconstriction obtained by clamping off the trachea. Following surgical preparation, the animals were pretreated with indomethacin (0.2 mg/kg, 10 min), pyrilamine (2 mg/kg, 6 min) and propanolol (0.1 mg/kg, 5 min) prior to the EA challenge (0.1 or 10 mg/kg). All test compounds were administered intraveneously or orally before the EA challenge. Inhibition (%) of bronchoconstriction was determined as follows: Inhibition (%)=(1.0%-maximum bronchoconstriction in test/% maximum bronchoconstriction in control)×100. The maximum bronchoconstriction was btained within 30 min after the EA challenge. The number of test animals was 4 in the i.v. test and 6 in the p.o. test.
(b) The p.o. test: A test compound was suspended in 5% gum arabic and orally administered 2 hours prior to the EA challenge (0.2 mg/kg). The reaction of the control was 62±6%.

ddY strain male mice [5] = assay: Acute toxicity test, oral (Test method-(2)); type: in vivo; settings: 7 days
Protocol: The lethal ratio was determined in ddY strain male mice (4 weeks old) at […] 7 days after the oral administration of test compounds.

LTD4 [6] = assay: LTD4 antagonism in isolated guinea-pig trachea with indomethacin (method (ii)); type: cell-based; settings: Cavia porcellus, 0.5 h, 10^-6 g/ml test compound, 30 min prior to LTD4
Protocol: (ii) LTD4 antagonism in guinea-pig trachea
Antagonism for LTD4 was determined in isolated guinea-pig trachea prepared as spiral strip. Tracheal preparations were suspended under 1 g tension in 10 ml organ baths containing […] of indomethacin and they were incubated for 1 hr prior to use. Contractile responses to LTD4 (2×10^-8 g/ml) were obtained after the maximal respone to hitamine (10^-4 M). Test compounds dissolved in 100% dimethyl sulfoxide were added to the organ baths (final concentration of 10^-6 g/ml) 30 min prior to LTD4 addition, and then contractile responses to LTD4 were compared with those of control which was obtained from a paired trachea in the absence of test compounds. LTD4 -induced contractions were expressed as a percentage of the maximal response to histamine. The antagonism was determined as follows:
as §4

Row | Compound | Inhibition (%) of bronchoconstriction [1] | Lethal ratio (Death number/Experimental number) (ddY strain male mice [2]; i.p. 200 mg/kg) | Lethal ratio (Death number/Experimental number) (ddY strain male mice [2]; i.p. 400 mg/kg) | inhibition at 10 µg/mL (LTC4) | inhibition at 10 µg/mL (LTD4 [3]) | inhibition at 1 µg/mL (LTD4 [3]) | further results
1 | COc1cccc(CNc2cnn(C3CCCC3)c(=O)c2Cl)c1 [Compound No. 3, 4-Chloro-5-(3-methoxybenzylamino)-2-cyclopentyl-3(2H)pyridazinone] | 31% | 0/2 | 0/1 | 97% | 82% | – | –
2 | COc1ccc(CNc2cnn(CC(=O)O)c(=O)c2Cl)cc1OC [Compound No. 10, 4-Chloro-5-(3,4-dimethoxybenzylamino)-2-(carboxymethyl)-3(2H)pyridazinone] | – | – | – | 29% | 20% | – | –
3 | CCOc1cc(CNc2cnn(C)c(=O)c2Cl)ccc1OC [Compound No. 13] | 19% | 0/2 | 0/1 | 81% | 79% | – | –
4 | CCCCOc1cc(CNc2cn[nH]c(=O)c2Br)ccc1OC [Compound No. 38] | – | – | – | – | – | 80% | Inhibition (%) of bronchoconstriction ([4]; p.o. 30 mg/kg): 53%; Lethal ratio (Death number/Experimental number) (ddY strain male mice [5]; oral 400 mg/kg): 0/3; Lethal ratio (Death number/Experimental number) (ddY strain male mice [5]; oral 800 mg/kg): 0/3
5 | CCCc1c(OCC(O)COc2ccc3c(=O)cc(C(=O)O)oc3c2CCC)ccc(C(C)=O)c1O (stereo not drawn) [FPL-55712, reference compound] | 27% | – | – | 100% | 97% | 76% | inhibition at 1 µg/mL (LTD4 [6]): 94%; Inhibition of bronchoconstriction (in words) ([4]; p.o. 100 mg/kg): No substantial inhibition
6 | CCOc1cc(CNc2cn[nH]c(=O)c2Br)ccc1OC [compound 36] | – | – | – | – | – | 70% | Inhibition (%) of bronchoconstriction ([4]; p.o. 50 mg/kg): 68%
